Holding throughout (type): functional, cell-based
The subject of experiment [1] is HCT-116. Put plainly: Cytotoxicity against human HCT-116 cells assessed as reduction in cell viability after 72 hrs by MTT assay.
For experiment [2], the system named is HT-29. Put plainly: Cytotoxicity against human HT-29 cells assessed as reduction in cell viability after 72 hrs by MTT assay. (In general: Formazan colour is commonly taken as a measure of viable cells.)
The test system of experiment [3] is HepG2. Put plainly: Cytotoxicity against human HepG2 cells assessed as reduction in cell viability after 72 hrs by MTT assay.

In general, IC50 refers to the point on the concentration scale where inhibition reaches its midpoint. Regarding `C=C1[C@H](O)C[C@@H]2[C@](C)(CC[C@H]3OC(C)(C)[C@@H](OC(=O)/C=C/C=C/C=C/[C@@H](C)CC)CC[C@]23C)[C@@H]1Cc1c(O)c(C)c(C)oc1=O`, the IC50 result in experiment [1] was “Not Active”; in experiment [2] (Homo sapiens, HT-29, 72 h, read-out: IC50), 7.6 µM; in experiment [3] it was “Not Active”.
`C=C1CC[C@@H]2[C@](C)(CC[C@H]3OC(C)(C)[C@@H](OC(=O)/C=C/C=C/[C@@H](C)CC)CC[C@]23C)[C@@H]1Cc1c(O)c(C)c(C)oc1=O`: the IC50 entry in experiment [1], in experiment [2] (ht-29) and in experiment [3] was “Not Active” throughout.
Regarding `C=C1[C@H](O)C[C@@H]2[C@](C)(CC[C@H]3OC(C)(C)[C@@H](OC(C)=O)CC[C@]23C)[C@@H]1Cc1c(O)c(C)c(C)oc1=O`, the half-maximal inhibitory concentration (IC50) entry in experiment [1], in experiment [2] (ht-29) and in experiment [3] was “Not Active” throughout.
Regarding `C=C1CC[C@@H]2[C@](C)(CC[C@H]3OC(C)(C)[C@@H](O)CC[C@]23C)[C@@H]1Cc1c(O)c(C)c(C)oc1=O`, the IC50 entry in experiment [1], in experiment [2] (ht-29) and in experiment [3] was “Not Active” each time.
In the case of `C=C1[C@H](O)C[C@@H]2[C@](C)(CC[C@H]3OC(C)(C)[C@@H](OC(=O)/C=C/C=C/[C@@H](C)CC)CC[C@]23C)[C@@H]1Cc1c(O)c(C)c(C)oc1=O`, the concentration for half-maximal inhibition (IC50) result in experiment [1], in experiment [2] (ht-29) and in experiment [3] was “Not Active” in each case.
On to `C=C1[C@H](O)C[C@@H]2[C@](C)(CC[C@H]3OC(C)(C)[C@@H](O)CC[C@]23C)[C@@H]1Cc1c(O)c(C)c(C)oc1=O`, for which the IC50 entry in experiment [1], in experiment [2] (ht-29) and in experiment [3] was “Not Active” in each case.

Values taken from ChEMBL document CHEMBL4715877, “Asperginols A and B, Diterpene Pyrones, from an Aspergillus sp. and the Structure Revision of Previously Reported Analogues” (J Nat Prod, 2020).
